In assay [1] the target is GSK3A ; P49840 (Homo sapiens, UniProt P49840). Nature of the assay: biochemical. The arrangement: species or system AsPC-1; Kinobeads competition pulldown in AsPC-1 lysate with LC-MS/MS label-free quantification; apparent Kd. As to the method:
(§1) This was followed by incubation with Kinobeads ε (17.5 µl of settled beads) for 30 min at 4 °C to enrich kinases. […] Enriched proteins were reduced with 50 mM DTT in 8 M urea, 40 mM Tris-HCl, pH 7.4 for 30 min at room temperature, and alkylated with 55 mM chloroacetamide. After reducing the urea concentration to 1–2 M, proteins were digested with trypsin at 37 °C for 16 h. Subsequently, eluted peptides were desalted using SepPak tC18 µElution plates (Waters), freeze-dried by vacuum centrifugation, and stored at −20 °C. Proteins were filtered by potential contaminants, reversed hits and proteins identified only by site. Residual binding of proteins was calculated from LFQ intensities as the ratio between drug doses and vehicle. […] Only kinases quantified with at least 4 unique peptides in the vehicle experiment were considered. Potential targets were further curated through manual inspection of dose-dependent reduction in MS/MS and unique peptide counts.

Assay [2] concerns the target MAP3K1 ; Q13233 (Homo sapiens, UniProt Q13233). Nature of the assay: biochemical. More on the design: species or system AsPC-1; Kinobeads competition pulldown in AsPC-1 lysate with LC-MS/MS label-free quantification; apparent Kd. As to the method: as §1
Assay [3] deals with FER. The note with it: cited from earlier work.
Assay [4] concerns LATS1. Particulars: cited from earlier work.
Assay [5] has as its target BMP2K. Particulars: cited from earlier work.
Assay [6] relates to TNK2. Particulars: cited from earlier work.
The test system of assay [7] is CLK1. The note with it: cited from earlier work.
Assay [8] deals with CAMK2D. The note with it: cited from earlier work.
Assay [9] deals with PKN2. The note with it: cited from earlier work.
For assay [10], the system named is PKN1. Particulars: cited from earlier work.
In assay [11] the target is SYK. Particulars: cited from earlier work.
Assay [12] deals with MAP4K1. The note with it: cited from earlier work.
Assay [13] deals with ULK3. Particulars: cited from earlier work.
Assay [14] relates to PRKD3. The note with it: cited from earlier work.
The subject of assay [15] is RPS6KA4. The note with it: cited from earlier work.
The subject of assay [16] is PLK4. The note with it: cited from earlier work.
The test system of assay [17] is p-sites in MiaPaCa-2 cells. Nature of the assay: Phosphoproteomics GEM + Elimusertib vs. GEM (non-decryptM). In kind it is cell-based, human. The procedure: (§2) Cell culture medium was replaced 24 h after seeding. […] For time point 0, AsPC-1 cells were treated with a vehicle and lysed immediately. The final DMSO concentration in all experiments was 0.2%.
(§3) Oxidized methionine, N-terminal acetylation, and phosphorylation (STY) were set as variable modification, and cysteine carbamidomethylation was set as fixed modification. All other search parameters were kept as default, except for protein FDR which was set to 1. […] Potential contaminants and reversed hits were removed, and only peptides with unambiguously assigned phosphorylation sites with a localization probability of > 0.75 were retained. To acquire site-level quantification values, the corrected reporter ion intensities of peptides containing the same phosphosite(s) were summed up. Median centering of corrected TMT reporter channel intensities was performed. […] Channel 11 served as a vehicle for the chemodrug treatment and was not subjected to curve fitting. Instead, row-wise normalization was performed across all four TMT-batches using the medians of channels 10 and 11. […] Phosphoproteomic experiments in six additional cell lines (not dose-resolved) were median-centered within each TMT-batch, prior to row-wise normalization across all TMT-batches using a common channel filled with AsPC-1 lysate (Appendix Table S5). Two-sided t-test analysis and multiple hypothesis testing correction was performed in R using the same parameters and thresholds as described above.

Assay [18] has as its system p-sites in PANC-1 cells. Described as above. The class given is cell-based, human. As to the method:
as §2, §3

Assay [19] deals with p-sites in Capan-1 cells. Described as above. In kind it is cell-based, human. The procedure: as §2, §3
Assay [20] has as its system p-sites in PaTu-8988-T cells. Described as above. In kind it is cell-based, human. As to the method:
as §2, §3

Assay [21] deals with p-sites in PSN-1 cells. Described as above. In kind it is cell-based, human. The procedure: as §2, §3
Setting [22] is: 5 cell line mix lysate, Kinobeads ε, ref Reinecke et al. (2023).
Where [23] appears, read: LATS1, 5 cell line mix lysate, Kinobeads ε, ref Reinecke et al. (2023).
The mark [24] stands for this setting: 5 cell line mix lysate, Kinobeads ε, ref Reinecke et al. (2023), read-out: KDapp.
Where [25] appears, read: TNK2, 5 cell line mix lysate, Kinobeads ε, ref Reinecke et al. (2023).
The mark [26] stands for this setting: CLK1, 5 cell line mix lysate, Kinobeads ε, ref Reinecke et al. (2023).
[27] abbreviates: PKN2, 5 cell line mix lysate, Kinobeads ε, ref Reinecke et al. (2023).
[28] abbreviates: PKN1, 5 cell line mix lysate, Kinobeads ε, ref Reinecke et al. (2023).
The mark [29] stands for this setting: MAP4K1, 5 cell line mix lysate, Kinobeads ε, ref Reinecke et al. (2023).
Where [30] appears, read: ULK3, 5 cell line mix lysate, Kinobeads ε, ref Reinecke et al. (2023).
The mark [31] stands for this setting: PRKD3, 5 cell line mix lysate, Kinobeads ε, ref Reinecke et al. (2023).
Where [32] appears, read: RPS6KA4, 5 cell line mix lysate, Kinobeads ε, ref Reinecke et al. (2023).
Where [33] appears, read: PLK4, 5 cell line mix lysate, Kinobeads ε, ref Reinecke et al. (2023).
The mark [34] stands for this setting: 4 cell line mix lysate, Kinobeads y, ref Klaeger et al. (2017).

These results are taken from article PMC11876601 (Molecular Systems Biology, 2025).

What is called EC50 is the midpoint of the concentration-response curve.

Where “and” joins values, the source holds several entries; their conditions need not be identical. Equal values may be shown once. Read-outs that look alike come from different tables or passages of the source.

Chain of GSK3A ; P49840 (P49840 whole entry): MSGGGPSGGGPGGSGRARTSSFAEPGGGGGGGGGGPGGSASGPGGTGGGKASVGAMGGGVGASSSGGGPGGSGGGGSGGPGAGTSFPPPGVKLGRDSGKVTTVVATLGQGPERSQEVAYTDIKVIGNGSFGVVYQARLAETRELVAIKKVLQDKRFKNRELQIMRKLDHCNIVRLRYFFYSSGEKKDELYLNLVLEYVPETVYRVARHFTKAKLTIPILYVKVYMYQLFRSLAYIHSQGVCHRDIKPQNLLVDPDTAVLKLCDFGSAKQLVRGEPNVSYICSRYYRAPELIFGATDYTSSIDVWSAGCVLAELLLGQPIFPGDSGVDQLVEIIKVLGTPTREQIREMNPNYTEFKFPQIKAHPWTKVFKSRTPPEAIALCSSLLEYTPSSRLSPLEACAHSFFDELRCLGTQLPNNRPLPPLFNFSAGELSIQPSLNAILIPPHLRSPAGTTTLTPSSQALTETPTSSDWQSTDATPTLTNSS
Chain of MAP3K1 ; Q13233 (Q13233 whole entry): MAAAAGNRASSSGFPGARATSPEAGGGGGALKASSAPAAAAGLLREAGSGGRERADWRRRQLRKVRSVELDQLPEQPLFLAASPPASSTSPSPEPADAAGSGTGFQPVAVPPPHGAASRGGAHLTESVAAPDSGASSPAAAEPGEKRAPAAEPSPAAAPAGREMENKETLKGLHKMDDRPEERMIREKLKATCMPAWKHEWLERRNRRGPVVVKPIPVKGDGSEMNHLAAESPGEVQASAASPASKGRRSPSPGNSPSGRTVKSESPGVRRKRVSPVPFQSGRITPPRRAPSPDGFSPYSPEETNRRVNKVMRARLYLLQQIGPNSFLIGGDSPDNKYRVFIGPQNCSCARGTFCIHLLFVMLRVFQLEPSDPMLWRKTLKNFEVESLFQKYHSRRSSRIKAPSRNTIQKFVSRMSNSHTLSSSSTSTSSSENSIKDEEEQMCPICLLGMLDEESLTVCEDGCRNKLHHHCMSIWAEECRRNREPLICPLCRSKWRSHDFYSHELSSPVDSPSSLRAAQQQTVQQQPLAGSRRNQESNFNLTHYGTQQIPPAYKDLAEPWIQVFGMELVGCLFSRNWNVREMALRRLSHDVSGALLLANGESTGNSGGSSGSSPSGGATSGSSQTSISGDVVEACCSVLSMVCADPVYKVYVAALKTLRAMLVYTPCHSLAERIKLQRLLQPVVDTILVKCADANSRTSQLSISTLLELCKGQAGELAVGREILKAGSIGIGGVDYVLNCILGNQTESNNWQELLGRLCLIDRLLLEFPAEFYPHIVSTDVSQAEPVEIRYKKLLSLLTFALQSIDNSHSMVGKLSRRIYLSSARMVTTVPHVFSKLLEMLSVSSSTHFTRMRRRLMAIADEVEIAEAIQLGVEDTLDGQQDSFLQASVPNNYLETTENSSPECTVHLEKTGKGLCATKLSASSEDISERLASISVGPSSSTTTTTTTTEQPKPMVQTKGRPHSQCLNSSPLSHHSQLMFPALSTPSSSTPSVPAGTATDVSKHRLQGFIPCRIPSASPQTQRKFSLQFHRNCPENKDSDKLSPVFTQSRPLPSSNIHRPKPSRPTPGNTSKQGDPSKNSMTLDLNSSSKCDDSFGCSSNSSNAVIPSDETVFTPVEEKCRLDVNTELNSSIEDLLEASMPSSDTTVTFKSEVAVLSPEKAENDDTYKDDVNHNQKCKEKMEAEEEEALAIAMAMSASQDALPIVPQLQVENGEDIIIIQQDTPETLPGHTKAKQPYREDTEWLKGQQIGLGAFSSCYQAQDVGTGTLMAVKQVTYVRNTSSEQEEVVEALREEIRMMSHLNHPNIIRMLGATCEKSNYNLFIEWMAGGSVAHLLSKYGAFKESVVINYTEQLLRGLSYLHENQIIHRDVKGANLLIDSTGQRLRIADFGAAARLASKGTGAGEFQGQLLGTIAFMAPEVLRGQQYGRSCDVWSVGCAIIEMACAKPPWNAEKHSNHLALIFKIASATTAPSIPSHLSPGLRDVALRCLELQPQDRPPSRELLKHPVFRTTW

For the molecule `CNCc1ccc(-c2cc(-c3nc(-c4ccc(S(=O)(=O)C(C)C)cc4)cnc3N)on2)cc1` [Berzosertib], the Kd in assay [1] amounted to 39.7 nM; in [2], 11.6 nM.
Regarding `COc1cc(N2CCC(N3CCN(C)CC3)CC2)ccc1Nc1ncc(Cl)c(Nc2ccccc2P(C)(C)=O)n1` [Brigatinib], the EC50 in [3] (setting [22]) was […]; in assay [4] (setting [23]) it was 3550 nM; in assay [5] (setting [22]), 1510 nM; in assay [6] (setting [25]) it was 5.93 nM; in assay [7] (setting [26]), 13.1 nM; in [8] (setting [22]), 424 nM. Also, the EC50 in assay [9] (setting [27]) is 1040 nM; in [10] (setting [28]), 2270 nM; in assay [11] (setting [22]), 1870 nM; in assay [12] (setting [29]) it was 716 nM; in assay [13] (setting [30]), 306 nM; in [14] (setting [31]) it was 259 nM. Further, the EC50 was 2080 nM in assay [15] (setting [32]) and 95.2 nM in assay [16] (setting [33]). Moreover, the pKDapp was 5.55 in assay [4] (setting [23]); 6.00 in assay [5] (setting [22]); 8.57 in assay [6] (setting [25]); 8.03 in [7] (setting [26]); 7.06 in assay [8] (setting [22]); 6.07 in assay [9] (setting [27]). Besides, the pKDapp is 5.70 in assay [10] (setting [28]); 5.81 in assay [11] (setting [22]); 6.28 in assay [12] (setting [29]); 6.86 in [13] (setting [30]); 6.72 in assay [14] (setting [31]); 5.89 in assay [15] (setting [32]). Moreover, in assay [16] (setting [33]), the pKDapp is listed as 7.31. Further, the Kd was 2790 nM in [4] (LATS1, 5 cell line mix lysate, Kinobeads ε, ref Reinecke et al. (2023), read-out: KDapp); 999 nM in assay [5] (setting [24]); 2.67 nM in assay [6] (TNK2, 5 cell line mix lysate, Kinobeads ε, ref Reinecke et al. (2023), read-out: KDapp); 9.35 nM in [7] (CLK1, 5 cell line mix lysate, Kinobeads ε, ref Reinecke et al. (2023), read-out: KDapp); 86.4 nM in [8] (setting [24]); 852 nM in assay [9] (PKN2, 5 cell line mix lysate, Kinobeads ε, ref Reinecke et al. (2023), read-out: KDapp). For the same molecule, the Kd is 1990 nM in assay [10] (PKN1, 5 cell line mix lysate, Kinobeads ε, ref Reinecke et al. (2023), read-out: KDapp); 1570 nM in [11] (setting [24]); 520 nM in assay [12] (MAP4K1, 5 cell line mix lysate, Kinobeads ε, ref Reinecke et al. (2023), read-out: KDapp); 139 nM in assay [13] (ULK3, 5 cell line mix lysate, Kinobeads ε, ref Reinecke et al. (2023), read-out: KDapp); 192 nM in assay [14] (PRKD3, 5 cell line mix lysate, Kinobeads ε, ref Reinecke et al. (2023), read-out: KDapp); 1290 nM in assay [15] (RPS6KA4, 5 cell line mix lysate, Kinobeads ε, ref Reinecke et al. (2023), read-out: KDapp). Moreover, in [16] (PLK4, 5 cell line mix lysate, Kinobeads ε, ref Reinecke et al. (2023), read-out: KDapp), the Kd was 48.5 nM.
Take `C[C@@H]1COCCN1c1cc(-c2ccnn2C)c2ccnc(-c3ccn[nH]3)c2n1` [Elimusertib]: the “Mean log2 PTM response (GEM+Elimusertib vs. GEM)” value in assay [17] is -1.06; in [18], -1.13; in assay [19], -1.06; in assay [20], -1.04; in assay [21] it was -1.04 and -1.16.
With `Nc1ccn([C@@H]2O[C@H](CO)[C@@H](O)C2(F)F)c(=O)n1` [GEM, Gemcitabine], the “Mean log2 TMT reporter ion intensity” value in assay [17] (source data 5F (p-site not named), MIAPACA2) worked out at 18.24; in assay [18] (source data 5F (p-site not named), PANC1), 18.30; in assay [19] (source data 5F (p-site not named), CAPAN1), 20.29; in assay [20] (source data 5F (p-site not named), PATU8988T) it was 19.97; in [21] (source data 5F (p-site not named), PSN1), 19.41.
`C[C@]12O[C@H](C[C@]1(O)CO)n1c3ccccc3c3c4c(c5c6ccccc6n2c5c31)CNC4=O` [Lestaurtinib]: the EC50 in [3] (setting [34]) was […]; in [4] (LATS1, 4 cell line mix lysate, Kinobeads y, ref Klaeger et al. (2017)) it was […]; in assay [5] (setting [34]) it was 323 nM; in [6] (TNK2, 4 cell line mix lysate, Kinobeads y, ref Klaeger et al. (2017)), […]; in assay [7] (CLK1, 4 cell line mix lysate, Kinobeads y, ref Klaeger et al. (2017)) it was […]; in assay [8] (setting [34]) it was […]. For the same molecule, the EC50 in assay [9] (PKN2, 4 cell line mix lysate, Kinobeads y, ref Klaeger et al. (2017)) was […]; in assay [10] (PKN1, 4 cell line mix lysate, Kinobeads y, ref Klaeger et al. (2017)) it was […]; in [11] (setting [34]) it was […]; in assay [12] (MAP4K1, 4 cell line mix lysate, Kinobeads y, ref Klaeger et al. (2017)) it was 347 nM; in assay [13] (ULK3, 4 cell line mix lysate, Kinobeads y, ref Klaeger et al. (2017)), […]; in assay [14] (PRKD3, 4 cell line mix lysate, Kinobeads y, ref Klaeger et al. (2017)) it was […]. Further, the EC50 in [15] (RPS6KA4, 4 cell line mix lysate, Kinobeads y, ref Klaeger et al. (2017)) is […]; in assay [16] (PLK4, 4 cell line mix lysate, Kinobeads y, ref Klaeger et al. (2017)), […].
On to `Nc1nn2cc(F)cnc2c1C(=O)Nc1cncc(F)c1N1CCC(C(=O)N2CCN(C3COC3)CC2)CC1` [Gartisertib], for which the Kd in assay [1] came out at 0.719 nM; in [2] it was 422 nM.
